Test results reported in publication PMC11834182 (Parasites & Vectors, 2025).
Read-outs that look alike come from different tables or passages of the source.

What was measured:
[1] = biological target: T1, rPpAChE1 (Phlebotomus papatasi, UniProt M1F887); experiment: biochemical; set-up: gene AChE; PpAChE1 cDNA in pBlueBac4.5/V5-His, baculovirus expression in Sf21 cells, expression supernatant; species or system Sf21 (expression host)
[2] = biological target: T1, rPpAChE1; experiment: biochemical; set-up: gene AChE
[3] = system: CC(=O)SCC[N+](C)(C)C; experiment: cells, lysate or membranes; conditions: pH 7.0

Compound: CCOC(=O)CC(SP(=O)(OC)OC)C(=O)OCC (stereo not shown) [Maloxon]
- IC50 [1]: 44 nM

Compound: c1ccc2c(NCCCCCCCNc3c4c(nc5ccccc35)CCCC4)c3c(nc2c1)CCCC3 [bis(7)-tacrine]
- IC50 [2]: 4 nM

Compound: rPpAChE1 (Phlebotomus papatasi)
- Km [3]: 123 ± 25 µM
- Vmax [3]: 74 ± 6.7 µmol/min/mg
